Source: BindingDB's records for doi:10.1124/jpet.301.1.37 (National Institutes of Health, 2002)
pKi: −log10 of the molar value. “And” between values parts separate entries of the source, which are not always exact repeats. Identical values can stand only once.

What was measured:
VIP peptides [1] = target: T1, VIP peptides (Homo sapiens, UniProt P01282)
T1 sequence (P01282 whole entry): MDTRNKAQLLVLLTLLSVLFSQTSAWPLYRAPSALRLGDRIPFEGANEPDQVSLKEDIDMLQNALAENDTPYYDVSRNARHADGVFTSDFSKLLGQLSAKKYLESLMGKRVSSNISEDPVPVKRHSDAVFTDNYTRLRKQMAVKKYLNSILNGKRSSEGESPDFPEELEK

VIP peptides [2] = target: T2, VIP peptides (Cavia porcellus, UniProt P04566)
T2 sequence (P04566 whole entry): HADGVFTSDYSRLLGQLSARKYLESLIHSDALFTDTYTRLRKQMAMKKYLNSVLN

Row | Compound | pKi (VIP peptides [1]) | pKi (VIP peptides [2])
1 | CC[C@@H](C)[C@@H](NC(=O)[C@H](CO)NC(=O)[C@H](CC(N)=O)NC(=O)[C@H](CC(C)C)NC(=O)[C@H](Cc1ccc(O)cc1)NC(=O)[C@H](CCCCN)NC(=O)[C@H](CCCCN)NC(=O)[C@@H](NC(=O)[C@H](C)NC(=O)[C@H](CCSC)NC(=O)[C@H](CCC(N)=O)NC(=O)[C@H](CCCCN)NC(=O)[C@H](CCCN=C(N)N)NC(=O)[C@H](CC(C)C)NC(=O)[C@H](CCCN=C(N)N)NC(=O)[C@@H](NC(=O)[C@H](Cc1ccc(O)cc1)NC(=O)[C@H](CC(N)=O)NC(=O)[C@H](CC(=O)O)NC(=O)[C@@H](NC(=O)[C@H](Cc1ccccc1)NC(=O)[C@@H](NC(=O)[C@H](C)NC(=O)[C@H](CC(=O)O)NC(=O)[C@H](CO)NC(=O)[C@@H](N)Cc1cnc[nH]1)C(C)C)[C@@H](C)O)[C@@H](C)O)C(C)C)C(=O)N[C@@H](CC(C)C)C(=O)N[C@@H](CC(N)=O)C(N)=O [VIP [D-Ile26]] | 7.42 and 7.31 and 7.48 | 7.14
2 | H-ASDAVFTDNYTRLRKQMAVKKYLNSILN-NH2 [VIP Ala1] | 7.77 and 7.05 and 7.19 | 7.02
3 | H-HSDAVFTDNYTRLRKQMAVKKYLNSILA-NH2 [VIP Ala28] | 9.27 and 8.57 and 8.55 | 8.37
4 | H-HSDAVFTDNYTRLRKQMAVKKYLNSALN-NH2 [VIP Ala26] |  | 8.37 and 7.91
5 | CC[C@H](C)[C@H](NC(=O)[C@H](CO)NC(=O)[C@H](CC(N)=O)NC(=O)[C@H](CC(C)C)NC(=O)[C@H](Cc1ccc(O)cc1)NC(=O)[C@H](CCCCN)NC(=O)[C@@H](CCCCN)NC(=O)[C@@H](NC(=O)[C@H](C)NC(=O)[C@H](CCSC)NC(=O)[C@H](CCC(N)=O)NC(=O)[C@H](CCCCN)NC(=O)[C@H](CCCN=C(N)N)NC(=O)[C@H](CC(C)C)NC(=O)[C@H](CCCN=C(N)N)NC(=O)[C@@H](NC(=O)[C@H](Cc1ccc(O)cc1)NC(=O)[C@H](CC(N)=O)NC(=O)[C@H](CC(=O)O)NC(=O)[C@@H](NC(=O)[C@H](Cc1ccccc1)NC(=O)[C@@H](NC(=O)[C@H](C)NC(=O)[C@H](CC(=O)O)NC(=O)[C@H](CO)NC(=O)[C@@H](N)Cc1cnc[nH]1)C(C)C)[C@@H](C)O)[C@@H](C)O)C(C)C)C(=O)N[C@@H](CC(C)C)C(=O)N[C@@H](CC(N)=O)C(N)=O [VIP [D-Lys20]] | 8.38 and 7.65 and 7.77 | 7.76
6 | CC[C@H](C)[C@H](NC(=O)[C@H](CO)NC(=O)[C@H](CC(N)=O)NC(=O)[C@H](CC(C)C)NC(=O)[C@H](Cc1ccc(O)cc1)NC(=O)[C@H](CCCCN)NC(=O)[C@H](CCCCN)NC(=O)[C@@H](NC(=O)[C@H](C)NC(=O)[C@H](CCSC)NC(=O)[C@H](CCC(N)=O)NC(=O)[C@@H](CCCCN)NC(=O)[C@H](CCCN=C(N)N)NC(=O)[C@H](CC(C)C)NC(=O)[C@H](CCCN=C(N)N)NC(=O)[C@@H](NC(=O)[C@H](Cc1ccc(O)cc1)NC(=O)[C@H](CC(N)=O)NC(=O)[C@H](CC(=O)O)NC(=O)[C@@H](NC(=O)[C@H](Cc1ccccc1)NC(=O)[C@@H](NC(=O)[C@H](C)NC(=O)[C@H](CC(=O)O)NC(=O)[C@H](CO)NC(=O)[C@@H](N)Cc1cnc[nH]1)C(C)C)[C@@H](C)O)[C@@H](C)O)C(C)C)C(=O)N[C@@H](CC(C)C)C(=O)N[C@@H](CC(N)=O)C(N)=O [VIP [D-Lys15]] | 8.70 and 7.86 and 7.96 | 7.70
7 | CC[C@H](C)[C@H](NC(=O)[C@H](CO)NC(=O)[C@H](CC(N)=O)NC(=O)[C@@H](CC(C)C)NC(=O)[C@H](Cc1ccc(O)cc1)NC(=O)[C@H](CCCCN)NC(=O)[C@H](CCCCN)NC(=O)[C@@H](NC(=O)[C@H](C)NC(=O)[C@H](CCSC)NC(=O)[C@H](CCC(N)=O)NC(=O)[C@H](CCCCN)NC(=O)[C@H](CCCN=C(N)N)NC(=O)[C@H](CC(C)C)NC(=O)[C@H](CCCN=C(N)N)NC(=O)[C@@H](NC(=O)[C@H](Cc1ccc(O)cc1)NC(=O)[C@H](CC(N)=O)NC(=O)[C@H](CC(=O)O)NC(=O)[C@@H](NC(=O)[C@H](Cc1ccccc1)NC(=O)[C@@H](NC(=O)[C@H](C)NC(=O)[C@H](CC(=O)O)NC(=O)[C@H](CO)NC(=O)[C@@H](N)Cc1cnc[nH]1)C(C)C)[C@@H](C)O)[C@@H](C)O)C(C)C)C(=O)N[C@@H](CC(C)C)C(=O)N[C@@H](CC(N)=O)C(N)=O [VIP [D-Leu23]] | 8.51 and 7.71 and 7.73 | 7.38
8 | H-HSDAVFTDNYTRLRKQMAVKKYLASILN-NH2 [VIP Ala24] |  | 8.05
9 | CC[C@H](C)[C@H](NC(=O)[C@H](CO)NC(=O)[C@H](CC(N)=O)NC(=O)[C@H](CC(C)C)NC(=O)[C@H](Cc1ccc(O)cc1)NC(=O)[C@H](CCCCN)NC(=O)[C@H](CCCCN)NC(=O)[C@@H](NC(=O)[C@H](C)NC(=O)[C@H](CCSC)NC(=O)[C@H](CCC(N)=O)NC(=O)[C@H](CCCCN)NC(=O)[C@H](CCCN=C(N)N)NC(=O)[C@H](CC(C)C)NC(=O)[C@H](CCCN=C(N)N)NC(=O)[C@@H](NC(=O)[C@@H](Cc1ccc(O)cc1)NC(=O)[C@H](CC(N)=O)NC(=O)[C@H](CC(=O)O)NC(=O)[C@@H](NC(=O)[C@H](Cc1ccccc1)NC(=O)[C@@H](NC(=O)[C@H](C)NC(=O)[C@H](CC(=O)O)NC(=O)[C@H](CO)NC(=O)[C@@H](N)Cc1cnc[nH]1)C(C)C)[C@@H](C)O)[C@@H](C)O)C(C)C)C(=O)N[C@@H](CC(C)C)C(=O)N[C@@H](CC(N)=O)C(N)=O [VIP [D-Tyr10]] | 8.43 and 7.49 and 7.61 | 7.63
10 | H-HSDAVFTDNATRLRKQMAVKKYLNSILN-NH2 [VIP Ala10] | 7.21 and 7.25 and 7.35 | 7.26
11 | CC[C@H](C)[C@H](NC(=O)[C@H](CO)NC(=O)[C@H](CC(N)=O)NC(=O)[C@H](CC(C)C)NC(=O)[C@H](Cc1ccc(O)cc1)NC(=O)[C@H](CCCCN)NC(=O)[C@H](CCCCN)NC(=O)[C@@H](NC(=O)[C@H](C)NC(=O)[C@H](CCSC)NC(=O)[C@H](CCC(N)=O)NC(=O)[C@H](CCCCN)NC(=O)[C@H](CCCN=C(N)N)NC(=O)[C@H](CC(C)C)NC(=O)[C@H](CCCN=C(N)N)NC(=O)[C@@H](NC(=O)[C@H](Cc1ccc(O)cc1)NC(=O)[C@@H](CC(N)=O)NC(=O)[C@H](CC(=O)O)NC(=O)[C@@H](NC(=O)[C@H](Cc1ccccc1)NC(=O)[C@@H](NC(=O)[C@H](C)NC(=O)[C@H](CC(=O)O)NC(=O)[C@H](CO)NC(=O)[C@@H](N)Cc1cnc[nH]1)C(C)C)[C@@H](C)O)[C@@H](C)O)C(C)C)C(=O)N[C@@H](CC(C)C)C(=O)N[C@@H](CC(N)=O)C(N)=O [VIP [D-Asn9]] |  | 8.55
12 | H-HSDAAFTDNYTRLRKQMAVKKYLNSILN-NH2 [VIP Ala5] |  | 7.46
13 | CC[C@H](C)[C@H](NC(=O)[C@H](CO)NC(=O)[C@H](CC(N)=O)NC(=O)[C@H](CC(C)C)NC(=O)[C@H](Cc1ccc(O)cc1)NC(=O)[C@H](CCCCN)NC(=O)[C@H](CCCCN)NC(=O)[C@@H](NC(=O)[C@H](C)NC(=O)[C@H](CCSC)NC(=O)[C@H](CCC(N)=O)NC(=O)[C@H](CCCCN)NC(=O)[C@H](CCCN=C(N)N)NC(=O)[C@H](CC(C)C)NC(=O)[C@H](CCCN=C(N)N)NC(=O)[C@@H](NC(=O)[C@H](Cc1ccc(O)cc1)NC(=O)[C@H](CC(N)=O)NC(=O)[C@H](CC(=O)O)NC(=O)[C@@H](NC(=O)[C@H](Cc1ccccc1)NC(=O)[C@@H](NC(=O)[C@H](C)NC(=O)[C@H](CC(=O)O)NC(=O)[C@H](CO)NC(=O)[C@@H](N)Cc1cnc[nH]1)C(C)C)[C@@H](C)O)[C@@H](C)O)C(C)C)C(=O)N[C@H](CC(C)C)C(=O)N[C@@H](CC(N)=O)C(N)=O [VIP [D-Leu27]] |  | 8.30
14 | CC[C@H](C)[C@H](NC(=O)[C@H](CO)NC(=O)[C@H](CC(N)=O)NC(=O)[C@H](CC(C)C)NC(=O)[C@H](Cc1ccc(O)cc1)NC(=O)[C@H](CCCCN)NC(=O)[C@H](CCCCN)NC(=O)[C@@H](NC(=O)[C@H](C)NC(=O)[C@@H](CCSC)NC(=O)[C@H](CCC(N)=O)NC(=O)[C@H](CCCCN)NC(=O)[C@H](CCCN=C(N)N)NC(=O)[C@H](CC(C)C)NC(=O)[C@H](CCCN=C(N)N)NC(=O)C(NC(=O)[C@H](Cc1ccc(O)cc1)NC(=O)[C@H](CC(N)=O)NC(=O)[C@H](CC(=O)O)NC(=O)C(NC(=O)[C@H](Cc1ccccc1)NC(=O)[C@@H](NC(=O)[C@H](C)NC(=O)[C@H](CC(=O)O)NC(=O)[C@H](CO)NC(=O)[C@@H](N)Cc1cnc[nH]1)C(C)C)[C@@H](C)O)[C@@H](C)O)C(C)C)C(=O)N[C@@H](CC(C)C)C(=O)N[C@@H](CC(N)=O)C(N)=O (stereo partly drawn) [VIP [D-Met17]] | 8.17 and 7.53 and 7.44 | 
15 | CC[C@H](C)[C@H](NC(=O)[C@H](CO)NC(=O)[C@H](CC(N)=O)NC(=O)[C@H](CC(C)C)NC(=O)[C@H](Cc1ccc(O)cc1)NC(=O)[C@H](CCCCN)NC(=O)[C@H](CCCCN)NC(=O)[C@@H](NC(=O)[C@H](C)NC(=O)[C@@H](CCSC)NC(=O)[C@H](CCC(N)=O)NC(=O)[C@H](CCCCN)NC(=O)[C@H](CCCN=C(N)N)NC(=O)[C@H](CC(C)C)NC(=O)[C@H](CCCN=C(N)N)NC(=O)C(NC(=O)[C@H](Cc1ccc(O)cc1)NC(=O)[C@H](CC(N)=O)NC(=O)[C@H](CC(=O)O)NC(=O)[C@@H](NC(=O)[C@H](Cc1ccccc1)NC(=O)[C@@H](NC(=O)[C@H](C)NC(=O)[C@H](CC(=O)O)NC(=O)[C@H](CO)NC(=O)[C@@H](N)Cc1cnc[nH]1)C(C)C)[C@@H](C)O)[C@@H](C)O)C(C)C)C(=O)N[C@@H](CC(C)C)C(=O)N[C@@H](CC(N)=O)C(N)=O (stereo partly drawn) [VIP [D- Met 17]] |  | 7.48
16 | CC[C@H](C)[C@H](NC(=O)[C@@H](CO)NC(=O)[C@H](CC(N)=O)NC(=O)[C@H](CC(C)C)NC(=O)[C@H](Cc1ccc(O)cc1)NC(=O)[C@H](CCCCN)NC(=O)[C@H](CCCCN)NC(=O)[C@@H](NC(=O)[C@H](C)NC(=O)[C@H](CCSC)NC(=O)[C@H](CCC(N)=O)NC(=O)[C@H](CCCCN)NC(=O)[C@H](CCCN=C(N)N)NC(=O)[C@H](CC(C)C)NC(=O)[C@H](CCCN=C(N)N)NC(=O)[C@@H](NC(=O)[C@H](Cc1ccc(O)cc1)NC(=O)[C@H](CC(N)=O)NC(=O)[C@H](CC(=O)O)NC(=O)[C@@H](NC(=O)[C@H](Cc1ccccc1)NC(=O)[C@@H](NC(=O)[C@H](C)NC(=O)[C@H](CC(=O)O)NC(=O)[C@H](CO)NC(=O)[C@@H](N)Cc1cnc[nH]1)C(C)C)[C@@H](C)O)[C@@H](C)O)C(C)C)C(=O)N[C@@H](CC(C)C)C(=O)N[C@@H](CC(N)=O)C(N)=O [VIP [D-Ser25]] |  | 7.36
